Source: US6858589B2, “Methods of and compositions for potentiating the action of agents active on cell wall sites of the susceptible bacteria” (priority 1996, dated 2005)

Experiments:
E. coli NCTC 10418 = test: E. coli counts after gentamicin profile (peak 4 mg/l, then reconstituted maintained concentration); assay type: cell-based, Escherichia coli
Description: The aminoglycoside reached a peak concentration of 4 mg/l 30 minutes post-dose and was removed from the E. coli culture by washing. Medium containing 0, 2, 2.5 and 3 mg/l gentamicin was reconstituted and added to the culture at 1 hour after initial exposure to the aminoglycoside (n=6).
The experimental work described herein involved testing bacterial response while changing aminoglycoside concentrations with time in the test tube, and mimics closely measurements made in man under clinical conditions (Bastone E B, Li S C, Ioannides-Demos L L, Spicer J., McLean A J, “Kill kinetics and regrowth patterns of E. coli exposed to gentamicin concentration-time profiles simulating in vivo bolus or infusion dosing”, Antimicrob Agents Chemother. 37:914-917, 1993).
With each antibiotic, concentration-time profiles similar to those observed in the blood of clinical patients following conventional intravenous dosing of an aminoglycoside (gentamicin) and pump-driven profiles of gentamicin and cephalosporin (cephazolin) were attained. The concentration-time profiles for each drug class have the general form shown in FIG. IA and FIG. IIIA of the accompanying drawings. Additionally a gentamicin profile of the form shown in FIG. IIIA was generated, which reached a peak of 12 mg/l over 3 hours, was maintained at 12 mg/l for a further hour, then was reconstituted to a range of steady-state concentrations (0, 0.5, 1.0, 2.0, 3.0, 4.0 mg/l) to yield the experimental results shown in Table 4. […]

[1] = tested on: blood culture isolate of cMRSA; test: MIC and MBC for the cMRSA isolate; assay type: cell-based, Staphylococcus aureus; details: mecA positive
Description: The student test was used for statistical analysis with a significant level of 0.05, it was performed using the Sigma Stat 32 program (SPSS Inc 1992-1997).

[2] = tested on: blood culture isolate of cMRSA; test: Kill kinetics and regrowth patterns of cMRSA exposed to gentamicin profiles and constant beta-lactam; assay type: cell-based, Staphylococcus aureus
Description: FIGS. 5a and 5b Kill kinetics and regrowth patterns of a clinical isolate of cMRSA.
The CMRSA isolate was cultured in the presence of gentamicin (Delta West, Bentleigh, Australia). An overnight culture of cMRSA in brain heart infusion broth (BHIB) (Oxoid, Bainstoke, England) was diluted to 10^7 CFU/ml in 0.1% peptone water (Oxoid, Bainstoke, England). A 1 ml sample of the 10^7 CFU/ml culture was added to the experimental culture broth, resulting in an initial density of 10^6 CFU/ml. In vitro concentration-time modeling of clinical plasma gentamicin concentration-time profiles assumed linear extrapolation of in vivo data as reported previously.^18 (Bastone et al Antimicrobial Agents and Chemotherapy 37(4): 914-917, 1993). […] Other profiles were constructed by linear extrapolation of these profiles and included 7 and 16 mg/l bolus and infusion profiles. Colony counts were performed at times 0, 0.5, 2.5, 4.5, 6.5, 8.5, 10.5, 24.5 and 48.5 hours for bolus profiles and times 0, 1, 3, 5, 7, 9, 11, 25 and 49 hours for infusion profiles.
In the experiments involving cephazolin the concentration was maintained at 4 mg/l in the BHIB for the entire 48.5 hours. For the experiments involving flucloxacillin the concentration of flucloxacillin was maintained at 2 mg/l for 48.5 hours. Colony counts were performed at times 0, 0,5, 2.5, 4.5, 6.5, 8.5, 10.5, 24.5 and 48.5 hours. […] These included cMRSA in a drug free broth, cMRSA exposed to a bolus profile of gentamicin with a target Cpeak 30 of 6 mg/l only, cMRSA exposed to […] of flucloxacillin only.
All experiments involved six replicates. Gentamicin concentrations were measured at times 0, 0.16, 0.33, 0.5, 2.5, 4.5, 6.5, 8.5, 10.5, 24.5 and 48.5 hours. Gentamicin assay concentrations were determined by fluorescence polarisation immunoassay (AxSYM, Abbot, Ill., U.S.A.) which has a threshold for detection of 0.3 mg/liter. […] (Gibaldi et al, pharmaceutics 2nd edn, 1982).
The blood culture cMRSA isolate was exposed to gentamicin in vitro simulating an in vivo bolus dosing regimen with varying 30 minute post dose concentrations of gentamicin. The same organism was then exposed to gentamicin in vitro simulating an in vivo bolus dosing regime with a 30 minute post dose concentration of 6 mg/l and constant concentration of 4 mg/l of cephazolin or 2 mg/l of flucloxacillin for 48 hours.

## gentamicin
E. coli NCTC 10418; peak 4 mg/liter, reconstituted to 3.0 mg/liter at 1 hr, maintained 0 hr (control), 3 hr
  BACTERIAL COUNTS: 3.05 ± 0.33 log ^10 (CFU/mL)
E. coli NCTC 10418; peak 4 mg/liter, reconstituted to 3.0 mg/liter at 1 hr, maintained 0 hr (control), 11 hr
  BACTERIAL COUNTS: 8.89 ± 0.20 log ^10 (CFU/mL)
E. coli NCTC 10418; peak 4 mg/liter, reconstituted to 3.0 mg/liter at 1 hr, maintained 0 hr (control), 25 hr
  BACTERIAL COUNTS: 9.07 ± 0.12 log ^10 (CFU/mL)
E. coli NCTC 10418; peak 4 mg/liter, reconstituted to 3.0 mg/liter at 1 hr, maintained 0 hr (control), 49 hr
  BACTERIAL COUNTS: 9.01 ± 0.06 log ^10 (CFU/mL)
E. coli NCTC 10418; peak 4 mg/liter, reconstituted to 3.0 mg/liter at 1 hr, maintained 2 hr, 3 hr
  BACTERIAL COUNTS: 0.17 ± 0.41 log ^10 (CFU/mL)
E. coli NCTC 10418; peak 4 mg/liter, reconstituted to 3.0 mg/liter at 1 hr, maintained 2 hr, 11 hr
  BACTERIAL COUNTS: 0.55 ± 0.61 log ^10 (CFU/mL)
E. coli NCTC 10418; peak 4 mg/liter, reconstituted to 3.0 mg/liter at 1 hr, maintained 2 hr, 25 hr
  BACTERIAL COUNTS: 7.95 ± 0.54 log ^10 (CFU/mL)
E. coli NCTC 10418; peak 4 mg/liter, reconstituted to 3.0 mg/liter at 1 hr, maintained 2 hr, 49 hr
  BACTERIAL COUNTS: 8.89 ± 0.19 log ^10 (CFU/mL)
E. coli NCTC 10418; peak 4 mg/liter, reconstituted to 3.0 mg/liter at 1 hr, maintained 4 hr, 3 hr
  BACTERIAL COUNTS: 0.17 ± 0.41 log ^10 (CFU/mL)
E. coli NCTC 10418; peak 4 mg/liter, reconstituted to 3.0 mg/liter at 1 hr, maintained 4 hr, 11 hr
  BACTERIAL COUNTS: 0.17 ± 0.41 log ^10 (CFU/mL)
E. coli NCTC 10418; peak 4 mg/liter, reconstituted to 3.0 mg/liter at 1 hr, maintained 4 hr, 25 hr
  BACTERIAL COUNTS: 5.18 ± 4.02 log ^10 (CFU/mL)
E. coli NCTC 10418; peak 4 mg/liter, reconstituted to 3.0 mg/liter at 1 hr, maintained 4 hr, 49 hr
  BACTERIAL COUNTS: 5.99 ± 4.64 log ^10 (CFU/mL)
E. coli NCTC 10418; peak 4 mg/liter, reconstituted to 3.0 mg/liter at 1 hr, maintained 8 hr, 3 hr
  BACTERIAL COUNTS: 0.33 ± 0.52 log ^10 (CFU/mL)
E. coli NCTC 10418; peak 4 mg/liter, reconstituted to 3.0 mg/liter at 1 hr, maintained 8 hr, 11 hr
  BACTERIAL COUNTS: NGD
E. coli NCTC 10418; peak 4 mg/liter, reconstituted to 3.0 mg/liter at 1 hr, maintained 8 hr, 25 hr
  BACTERIAL COUNTS: NGD
E. coli NCTC 10418; peak 4 mg/liter, reconstituted to 3.0 mg/liter at 1 hr, maintained 8 hr, 49 hr
  BACTERIAL COUNTS: NGD
E. coli NCTC 10418; post-distribution peak 4 mg/liter, reconstituted at 1 hr to 0 mg/liter, 3 hr
  BACTERIAL COUNTS: 3.96 ± 0.70 log ^10 (CFU/mL)
E. coli NCTC 10418; post-distribution peak 4 mg/liter, reconstituted at 1 hr to 0 mg/liter, 11 hr
  BACTERIAL COUNTS: 9.24 ± 0.34 log ^10 (CFU/mL)
E. coli NCTC 10418; post-distribution peak 4 mg/liter, reconstituted at 1 hr to 0 mg/liter, 25 hr
  BACTERIAL COUNTS: 9.15 ± 0.17 log ^10 (CFU/mL)
E. coli NCTC 10418; post-distribution peak 4 mg/liter, reconstituted at 1 hr to 0 mg/liter, 49 hr
  BACTERIAL COUNTS: 8.93 ± 0.12 log ^10 (CFU/mL)
E. coli NCTC 10418; post-distribution peak 4 mg/liter, reconstituted at 1 hr to 2.0 mg/liter, 3 hr
  BACTERIAL COUNTS: 1.92 ± 1.21 log ^10 (CFU/mL)
E. coli NCTC 10418; post-distribution peak 4 mg/liter, reconstituted at 1 hr to 2.0 mg/liter, 11 hr
  BACTERIAL COUNTS: 7.76 ± 1.06 log ^10 (CFU/mL)
E. coli NCTC 10418; post-distribution peak 4 mg/liter, reconstituted at 1 hr to 2.0 mg/liter, 25 hr
  BACTERIAL COUNTS: 8.69 ± 0.63 log ^10 (CFU/mL)
E. coli NCTC 10418; post-distribution peak 4 mg/liter, reconstituted at 1 hr to 2.0 mg/liter, 49 hr
  BACTERIAL COUNTS: 9.34 ± 0.27 log ^10 (CFU/mL)
E. coli NCTC 10418; post-distribution peak 4 mg/liter, reconstituted at 1 hr to 2.5 mg/liter, 3 hr
  BACTERIAL COUNTS: 0.33 ± 0.52 log ^10 (CFU/mL)
E. coli NCTC 10418; post-distribution peak 4 mg/liter, reconstituted at 1 hr to 2.5 mg/liter, 11 hr
  BACTERIAL COUNTS: 0.33 ± 0.52 log ^10 (CFU/mL)
E. coli NCTC 10418; post-distribution peak 4 mg/liter, reconstituted at 1 hr to 2.5 mg/liter, 25 hr
  BACTERIAL COUNTS: 4.85 ± 3.82 log ^10 (CFU/mL)
E. coli NCTC 10418; post-distribution peak 4 mg/liter, reconstituted at 1 hr to 2.5 mg/liter, 49 hr
  BACTERIAL COUNTS: 5.98 ± 4.63 log ^10 (CFU/mL)
E. coli NCTC 10418; post-distribution peak 4 mg/liter, reconstituted at 1 hr to 3.0 mg/liter, 3 hr
  BACTERIAL COUNTS: 0.33 ± 0.52 log ^10 (CFU/mL)
E. coli NCTC 10418; post-distribution peak 4 mg/liter, reconstituted at 1 hr to 3.0 mg/liter, 11 hr
  BACTERIAL COUNTS: NGD
E. coli NCTC 10418; post-distribution peak 4 mg/liter, reconstituted at 1 hr to 3.0 mg/liter, 25 hr
  BACTERIAL COUNTS: NGD
E. coli NCTC 10418; post-distribution peak 4 mg/liter, reconstituted at 1 hr to 3.0 mg/liter, 49 hr
  BACTERIAL COUNTS: NGD
[1]
  MBC: 4 µg/mL
  MIC: 1 µg/mL
[2]; each agent alone
  Outcome of exposure: complete kill or eradication was not achieved
[2]; gentamicin bolus and infusion profiles, target Cpeak30 7 mg/l
  Time at which regrowth phase began: 24.5 h
[2]; gentamicin bolus and infusion profiles, target Cpeak30 16 mg/l
  Regrowth: no regrowth
[2]; gentamicin only, bolus profile Cpeak30 6 mg/l
  Time at which early bactericidal effect was evident: ≤ 0.5 h
